Assay results as given in ChEMBL document CHEMBL1933015, “Synthesis and evaluation of novel prodrugs of caspase inhibitors” (Bioorg Med Chem Lett, 2012).

Experiments:
[1] = test system: Rattus norvegicus; assay: Tmax in Sprague-Dawley rat assessed as VX166 level at 10 mg/kg, po; type: ADME, organism-based; parameters: dose 10 mg/kg, route oral; details: in vivo
[2] = test system: Plasma; assay: Half life in rat plasma assessed as < 10% of prodrug is remaining; type: ADME, cell-free
[3] = test system: Rattus norvegicus; assay: AUC (0 to infinity) in Sprague-Dawley rat assessed as VX166 level in plasma at 10 mg/kg, po; type: ADME, organism-based; parameters: time infinity, dose 10 mg/kg, route oral; details: in vivo
[4] = Half life in buffer at pH 9 assessed as prodrug conversion; type: physicochemical
[5] = Half life in buffer at pH 4 assessed as prodrug conversion; type: physicochemical
[6] = Half life in buffer at pH 6 assessed as prodrug conversion; type: physicochemical
[7] = test system: Plasma; assay: Half life in human plasma assessed as < 50% of prodrug is remaining; type: ADME, cell-free
[8] = test system: Rattus norvegicus; assay: Oral bioavailability in Sprague-Dawley rat assessed as VX166 level at 10 mg/kg; type: ADME, organism-based; details: in vivo
[9] = Half life in buffer at pH 7.4 assessed as prodrug conversion; type: physicochemical
[10] = test system: Rattus norvegicus; assay: Half life in Sprague-Dawley rat assessed as prodrug conversion to VX166 at 10 mg/kg, po; type: ADME, organism-based; parameters: dose 10 mg/kg, route oral; details: in vivo
[11] = test system: Plasma; assay: Half life in human plasma assessed as around 50% of prodrug is remaining; type: ADME, cell-free
[12] = test system: Plasma; assay: Half life in rat plasma assessed as < 50% of prodrug is remaining; type: ADME, cell-free
[13] = Permeability from apical to basal side across human Caco2 cells; type: ADME, cell-based; details: Caco-2, read-out: permeability
[14] = Permeability from basal to apical side across human Caco2 cells; type: ADME, cell-based; details: Caco-2, read-out: permeability
[15] = AUC (0 to infinity) in Sprague-Dawley rat at 10 mg/kg, po; type: ADME, organism-based; parameters: time infinity, dose 10 mg/kg, route oral; details: plasma
[16] = Oral bioavailability in Sprague-Dawley rat at 10 mg/kg; type: ADME, organism-based; details: in vivo
[17] = Half life in Sprague-Dawley rat at 10 mg/kg, iv; type: ADME, organism-based; parameters: dose 10 mg/kg, route intravenous; details: in vivo
[18] = AUC (0 to infinity) in Sprague-Dawley rat at 10 mg/kg, iv; type: ADME, organism-based; parameters: time infinity, dose 10 mg/kg, route intravenous; details: plasma
[19] = Clearance in Sprague-Dawley rat at 10 mg/kg, iv; type: ADME, organism-based; parameters: dose 10 mg/kg, route intravenous; details: in vivo
[20] = Tmax in Sprague-Dawley rat at 10 mg/kg, po; type: ADME, organism-based; parameters: dose 10 mg/kg, route oral; details: in vivo
[21] = Half life in Sprague-Dawley rat at 10 mg/kg, po; type: ADME, organism-based; parameters: dose 10 mg/kg, route oral; details: in vivo

Structure (SMILES) | t1/2 [2] [min] | t1/2 [4] [min] | t1/2 [5] [min] | t1/2 [6] [min] | t1/2 [9] [min] | t1/2 [11] [min] | Papp A→B [13] [×10⁻⁶ cm/s] | Papp B→A [14] [×10⁻⁶ cm/s] | other results
CC[C@@H](C1=N[C@H]2CC(=O)O[C@@]2(COc2c(F)c(F)cc(F)c2F)O1)n1cccc(NC(=O)OC)c1=O | < 1 | 42 | 108 | 522 | 192 | – | – | – | Tmax [1]: 37.8 min; AUC [3]: 1660 ng·h/mL; t1/2 [7]: < 1 min; F [8]: 27%; t1/2 [10]: 58.2 min
C[C@H](NC(=O)C(=O)Nc1ccccc1C(C)(C)C)C1=N[C@H]2CC(=O)O[C@@]2(COc2c(F)c(F)cc(F)c2F)O1 | – | 438 | 72 | 1490 | 1780 | 1 | 0.5 | 10 | t1/2 [12]: < 1 min
CC[C@@H](C(=O)N[C@@H](CC(=O)O)C(=O)COc1c(F)c(F)cc(F)c1F)n1cccc(NC(=O)OC)c1=O | – | – | – | – | – | – | – | – | AUC(0-inf) [15]: 860 ng·h/mL; bioavailability [16]: 14%; half-life [17]: 31.8 min; AUC(0-inf) [18]: 6160 ng·h/mL; clearance [19]: 22.3 mL/min/kg; Tmax [20]: 19.8 min; half-life [21]: 91.8 min
C[C@H](NC(=O)C(=O)Nc1ccccc1C(C)(C)C)C(=O)N[C@@H](CC(=O)O)C(=O)COc1c(F)c(F)cc(F)c1F [EMRICASAN] | – | – | – | – | – | – | 0.5 | 10 | –
O=C1C[C@@H]2N=C(c3cccc4ccccc34)O[C@]2(CF)O1 | < 1 | 48 | 864 | 792 | 240 | 1 | – | – | –
